From patent US12077503B2, “Substituted cyclic amides and their use as herbicides” (FMC CORPORATION, priority 2015, dated 2024)

Assays:
Type in all cases: in vivo
[1] = test system: barnyardgrass (Echinochloa crus-galli); assay: Test B flooded paddy test; conditions: Flood, 250 g ai/ha; 0 to 100 scale where 0 is no effect and 100 is complete control; 13 to 15 d
In short: (§1)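 Compound goes directly into floodwater once pots are flooded 3 cm above soil, targeting plants at two leaves; the water depth is then held for the test duration. Plants sit 13–15 d in a greenhouse and are rated visually, 100 denoting complete control.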

[2] = test system: ducksalad (Heteranthera limosa); assay: Test B flooded paddy test; conditions: Flood, 250 g ai/ha; 0 to 100 scale where 0 is no effect and 100 is complete control; 13 to 15 d
In short: as §1

[3] = test system: sedge, umbrella (small-flower umbrella sedge, Cyperus difformis); assay: Test B flooded paddy test; conditions: Flood, 250 g ai/ha; 0 to 100 scale where 0 is no effect and 100 is complete control; 13 to 15 d
In short: as §1

rice (Oryra sativa) = assay: Test B flooded paddy test; conditions: Flood, 250 g ai/ha; 0 to 100 scale where 0 is no effect and 100 is complete control; 13 to 15 d
In short: as §1

[4] = test system: barnyardgrass (Echinochloa crus-galli); assay: Test A postemergence; conditions: postemergence, 0 to 100 scale (0 no effect, 100 complete control)
In short: (§2)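 Visual injury scores from 0, no effect, to 100, complete control, were assigned versus untreated controls roughly 10 d after treatment in the greenhouse. Test chemicals, formulated with surfactant in a non-phytotoxic solvent, were applied to planted seeds as a preemergence soil spray or postemergence to one- to two-leaf plants 2 to 10 cm tall, in loam–sand soil.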

[5] = test system: blackgrass (Alopecurus myosuroides); assay: Test A postemergence; conditions: postemergence, 0 to 100 scale (0 no effect, 100 complete control)
In short: as §2

[6] = test system: pigweed (Amaranthus retroflexus); assay: Test A postemergence; conditions: postemergence, 0 to 100 scale (0 no effect, 100 complete control)
In short: as §2

[7] = test system: giant foxtail (Setaria faberii); assay: Test A postemergence; conditions: postemergence, 0 to 100 scale (0 no effect, 100 complete control)
In short: as §2

[8] = test system: Galium (catchweed bedstraw, Galium aparine); assay: Test A postemergence; conditions: postemergence, 0 to 100 scale (0 no effect, 100 complete control)
In short: as §2

[9] = test system: wheat (Triticum aestivum); assay: Test A postemergence; conditions: postemergence, 0 to 100 scale (0 no effect, 100 complete control)
In short: as §2

Kochia (Kochia scoparia) [10] = assay: Test A postemergence; conditions: postemergence, 0 to 100 scale (0 no effect, 100 complete control)
In short: as §2

[11] = test system: ryegrass, Italian (Italian ryegrass, Lolium multiflorum); assay: Test A postemergence; conditions: postemergence, 0 to 100 scale (0 no effect, 100 complete control)
In short: as §2

[12] = test system: ragweed (common ragweed, Ambrosia elatior); assay: Test A postemergence; conditions: postemergence, 0 to 100 scale (0 no effect, 100 complete control)
In short: as §2

corn (Zea mays) = assay: Test A postemergence; conditions: postemergence, 0 to 100 scale (0 no effect, 100 complete control)
In short: as §2

[13] = test system: barnyardgrass (Echinochloa crus-galli); assay: Test A preemergence
In short: as §2

[14] = test system: pigweed (Amaranthus retroflexus); assay: Test A preemergence
[15] = test system: giant foxtail (Setaria faberii); assay: Test A preemergence
In short: as §2

Kochia (Kochia scoparia) [16] = assay: Test A preemergence
In short: as §2

[17] = test system: ryegrass, Italian (Italian ryegrass, Lolium multiflorum); assay: Test A preemergence
In short: as §2

[18] = test system: ragweed (common ragweed, Ambrosia elatior); assay: Test A preemergence
In short: as §2

[19] = 125 g ai/ha, visual rating after approx. 10 d
[20] = 500 g ai/ha, visual injury, approx. 10 d
[21] = 125 g ai/ha, Preemergence, visual injury after approximately 10 d, 0 to 100 scale where 0 is no effect and 100 is complete control
[22] = 500 g ai/ha, preemergence, 0 to 100 scale, 0 = no effect, 100 = complete control

In the case of `Cc1ccc(C2CN(C)C(=O)C2C(=O)Nc2ccccc2S(C)(=O)=O)cc1` (stereo not drawn) [Compound 663], the “Plant response rating, Barnyardgrass” value [1] is reported as 70, the “Plant response rating, Ducksalad” value [2] is reported as 98 and the “Plant response rating, Sedge, Umbrella” value [3] is reported as 0. The “Plant response rating, Rice” value (rice (Oryra sativa)) was 0, the “Plant response rating, Barnyardgrass” value [4, 19] was 90 and the “Plant response rating, Barnyardgrass” value [4, 20] was 90. The “Plant response rating, Blackgrass” value [5, 19] was 60, the “Plant response rating, Blackgrass” value [5, 20] was 70 and the “Plant response rating, Pigweed” value [6, 19] was 0. The “Plant response rating, Pigweed” value [6, 20] was 20, the “Plant response rating, Foxtail, Giant” value [7, 19] was 90 and the “Plant response rating, Foxtail, Giant” value [7, 20] was 90. For the same compound, the “Plant response rating, Galium” value [8, 19] was 50, the “Plant response rating, Galium” value [8, 20] was 60 and the “Plant response rating, Wheat” value [9, 19] was 50. For the same compound, the “Plant response rating, Wheat” value [9, 20] was 70, the “Plant response rating, Kochia” value (Kochia (Kochia scoparia) [10]; [19]) was 20 and the “Plant response rating, Kochia” value (Kochia (Kochia scoparia) [10]; [20]) was 60. For the same compound, the “Plant response rating, Ryegrass, Italian” value [11, 19] was 40, the “Plant response rating, Ryegrass, Italian” value [11, 20] was 70 and the “Plant response rating, Ragweed” value [12, 19] was 30. The “Plant response rating, Ragweed” value [12, 20] was 40, the “Plant response rating, Corn” value (corn (Zea mays); [19]) was 30 and the “Plant response rating, Corn” value (corn (Zea mays); [20]) was 80. The “Plant response rating, Barnyardgrass” value [13, 21] was 90, the “Plant response rating, Barnyardgrass” value [13, 22] was 100 and the “Plant response rating, Pigweed” value [14, 21] was 30. For the same compound, the “Plant response rating, Pigweed” value [14, 22] was 70, the “Plant response rating, Foxtail, Giant” value [15, 21] was 90 and the “Plant response rating, Foxtail, Giant” value [15, 22] was 100. For the same compound, the “Plant response rating, Kochia” value (Kochia (Kochia scoparia) [16]; [21]) was 70, the “Plant response rating, Kochia” value (Kochia (Kochia scoparia) [16]; [22]) was 80 and the “Plant response rating, Ryegrass, Italian” value [17, 21] was 30. The “Plant response rating, Ryegrass, Italian” value [17, 22] was 90, the “Plant response rating, Ragweed” value [18, 21] was 30 and the “Plant response rating, Ragweed” value [18, 22] was 70.
